# Laboratory results published in patent US20230212274A1, “METHOD FOR TREATING ASTHMA OR ALLERGIC DISEASE” (THE CHILDREN'S MEDICAL CENTER CORPORATION, priority 2020, published 2023).
# Entries after “also recorded” stand apart in the source; their conditions may differ.
# B1: IL-25: cytokine added to cell cultures (protein, UniProt Q9H293 33-177, looked up)
# Interleukin-25: YSHWPSCCPSKGQDTSEELLRWSTVPVPPLEPARPNRHPESCRASEDGPLNSRAISPWRYELDRDLNRLPQDLYHARCLCPHCVSLQTGSHMDPRGNSELLYHNQTVFYRRPCHGEKGTHKGYCLERRLYRVSLACVCVRPRVMG
# B2: recombinant GDF15: recombinant cytokine growth and differentiation factor 15, secreted ligand of the TGF-beta superfamily (protein, UniProt Q99988 195-308, looked up)
# Growth/differentiation factor …: ARARNGDHCPLGPGRCCRLHTVRASLEDLGWADWVLSPREVQVTMCIGACPSQFRAANMHAQIKTSLHRLKPDTVPAPCCVPASYNPMVLIQKTDTGVSLQTYDDLLAKDCHCI
# B3: IL-33: cytokine added to cell cultures (protein, UniProt O95760 1-270, looked up)
# Interleukin-33: MKPKMKYSTNKISTAKWKNTASKALCFKLGKSQQKAKEVCPMYFMKLRSGLMIKKEACYFRRETTKRPSLKTGRKHKRHLVLAACQQQSTVECFAFGISGVQKYTRALHDSSITGISPITEYLASLSTYNDQSITFALEDESYEIYVEDLKKDEKKDKVLLSYYESQHPSNESGDGVDGKMLMVTLSPTKDFWLHANNKEHSVELHKCEKPLPDQAFFVLHNMHSNCVSFECKTDPGVFIGVKDNHLALIKVDSSENLCTENILFKLSET
# Experiments:
# [1] = system: Notch4 expression on differentiating iTreg cells; test: in vitro iTreg cell differentiation: OT-II T cells co-cultured with OVA323-339- or OVA323-339+UFP-pulsed alveolar macrophages, Notch4 by flow cytometry; assay type: cell-based, mouse; conditions: for Notch4 expression on differentiating iTreg cells: cytokine added to co-cultures with OVA323-339 / OVA323-339+UFP-pulsed alveolar macrophages
# Excerpt: (§1) FIGS. 1A-1H show Notch4 expression on lung Treg cells in allergic airway inflammation. (FIG. 1A) RT-PCR of Notchl-4 transcripts in lung Treg and Teff cells isolated from PBS, OVA and OVA+UFP mouse groups. (FIG. 1B and FIG. 1C) Flow cytometric analysis, cell frequencies and mean fluorescence intensity (MFI) of Notch4 expression on lung Treg and Teff cells in the respective mouse groups. (FIG. 1D and FIG. 1E) Flow cytometric analysis and cell frequencies of Notch4 expression on OT-II^+CD4^+Foxp3^+ T cells generated in co-cultures with sham or OVA323-339+UFP-pulsed alveolar macrophages without or with IL-6 or anti-IL-6R mAb. (FIG. 1F) Flow cytometric analysis and cell frequencies of Notch4 expression in Helios^high and Helios^low lung Treg cells isolated from the respective mouse groups. (FIG. 1G) Flow cytometric analysis and cell frequencies of Notch4 expression on in vitro differentiated Treg cells derived from naive CD4^+ T cells isolated from Foxp3^YFPCre, Foxp3^YFPCreIl6r^Δ/Δ and Foxp3^YFPCreStat3^Δ/Δ mice and either untreated or treated with IL-6. (FIG. 1H) ChIP assays for the binding of STAT3 and control (IgG) antibodies to the Notch4 promoter in lung Treg cells of OVA+UFP-treated Foxp3^YFPCre, and Foxp3^YFPCreStat3^Δ/Δ mice. Each symbol represents one mouse. Numbers in flow plots indicate percentages. Error bars indicate SEM. Statistical tests for all panels: One-way ANOVA with Dunnett’s post hoc analysis. *P<0.05, **P<0.01, ***P<0.001, ****P<0.0001. Data representative of two or three independent experiments. (FIGS. 1A, 1D to 1F) n=5, (FIGS. 1B and 1C) n=15 and (FIGS. 1G and 1H) n=6 replicates per group.
# FIGS. 7A-7E show Notch4 expression on lung Treg cells in allergic airway inflammation. (FIGS. 7A to 7C) Flow cytometric analysis, cell frequencies and mean fluorescence intensity (MFI) of Notch1, 2 and 3 expression on lung Treg and Teff cells in the respective mouse groups. (FIG. 7D) Cell frequencies of Notch4 expression on OT-II^+CD4^+Foxp3^+ T cells generated in co-cultures with sham or OVA323-339+UFP-pulsed alveolar macrophages without or with IL-1B, IL-25, IL-33, TSLP or TNFa. (FIG. 7E) ChIP assays for the binding of STAT3 and control (IgG) antibodies to the Notch1, 2 and 3 promoters in lung Treg cells of OVA+UFP-treated Foxp3^YFPCre, and Foxp3^YFPCreStat3^Δ/Δ mice. Each symbol represents one mouse. Numbers in flow plots indicate percentages. Error bars indicate SEM. Statistical tests for all panels: One-way ANOVA with Dunnett’s post hoc analysis. *P<0.05, **P<0.01, ***P<0.001, ****P<0.0001. Data representative of two or three independent experiments. N = 5-10 replicas per group.
# To examine signals driving the induction of Notch4 on iTreg cells, the inventors employed an in vitro iTreg cell differentiation system in which OT-II T cell receptor (TCR) transgenic T cells, specific for the OVA323-339 peptide, were incubated with isolated primary alveolar macrophages (AM). […] Chromatin immunoprecipitation assays confirmed IL-6-dependent inducible binding of STAT3 to the Notch4 promoter in Treg cells, but not to those of Notch1, Notch2 or Notch3, which was abrogated by Stat3 deletion (FIG. 1I; […]).
# [2] = system: Notch4 expression on Treg cells; test: Notch4 expression on peripheral blood Treg cells of a severe asthmatic subject before and after therapy; assay type: in vivo, human; conditions: post therapy
# Excerpt: In contrast, Notch4 expression on circulating CD4^+ Teff cells was low and remained relatively flat as a function of asthma severity (FIG. 6B). Also, expression of Notchl-3 on Treg and Teff cells was not increased in asthmatics as compared to control subjects (FIGS. 17A-17I). Notch4 expression was restricted to the Helios^low iTreg cell subpopulation (FIG. 6C). […] Also, there were increased concentrations of GDF 15 in the sera of moderate and severe asthmatics that positively correlated with circulating Treg cell Notch4 expression (FIG. 6F).
# GDF15 = test: in vitro co-culture of GDF15-expressing Notch4high Treg cells with naive ILC2 cells; assay type: cell-based, mouse; conditions: Treg cells from lungs of OVA+UFP-treated mice
# Procedure: (§2) FIGS. 5A-5L show Notch4 promotes ILC2 activation via a GDF15-dependent mechanism (FIG. 5A) Flow cytometric analysis and frequencies of IL13^+ ILC2 (Lineage^- T1/ST2^+ cells) in mice of respective genotypes treated as indicated. (FIG. 5B and FIG. 5C) In vitro suppression assays of ILC2 cells isolated from OVA+UFP-treated Foxp3^YFPCre mice and incubated with Treg cells of mice of the respective genotypes treated as indicated. Additional treatment of in vitro cultures with isotype control or anti-Notch4 mAb is also indicated. (FIG. 5D) Flow cytometric analysis and frequencies of GDF15^+ lung Treg cells of mice of the respective genotypes treated as indicated. (FIG. 5E) Flow cytometric analysis and frequencies of IL-13 expression in cultures of naive ILC2 stimulated with IL-33, GDF15 or both. (FIG. 5F) IL-13 expression in naive ILC2 incubated with Notch4^high Treg cells from OVA+UFP treated mice without or with blocking GDF15 peptide. (FIG. 5G and FIG. 5H) AHR and IL13^+ ILC2 frequencies in Foxp3^YFPCre mice treated as indicated and challenged in the presence of carrier protein or GDF15 blocking peptide. (FIG. 5I to FIG. 5K) AHR and frequencies of the indicated lung cell types in sham or OVA+UFP sensitized and challenged Foxp3^YFPCre and Foxp3^YFPCreNotch4^Δ/Δ mice treated with recombinant GDF15, as indicated. Each symbol represents an independent sample. […]
# [3] = system: allergic airway inflammation; test: OVA+UFP allergic airway inflammation in mice, intra-tracheal instillation; assay type: in vivo, mouse
# Procedure: FIGS. 5A-5L show Notch4 promotes ILC2 activation via a GDF15-dependent mechanism (FIG. 5A) Flow cytometric analysis and frequencies of IL13^+ ILC2 (Lineage^- T1/ST2^+ cells) in mice of respective genotypes treated as indicated. (FIG. 5B and FIG. 5C) In vitro suppression assays of ILC2 cells isolated from OVA+UFP-treated Foxp3^YFPCre mice and incubated with Treg cells of mice of the respective genotypes treated as indicated. Additional treatment of in vitro cultures with isotype control or anti-Notch4 mAb is also indicated. (FIG. 5D) Flow cytometric analysis and frequencies of GDF15^+ lung Treg cells of mice of the respective genotypes treated as indicated. (FIG. 5E) Flow cytometric analysis and frequencies of IL-13 expression in cultures of naive ILC2 stimulated with IL-33, GDF15 or both. (FIG. 5F) IL-13 expression in naive ILC2 incubated with Notch4^high Treg cells from OVA+UFP treated mice without or with blocking GDF15 peptide. (FIG. 5G and FIG. 5H) AHR and IL13^+ ILC2 frequencies in Foxp3^YFPCre mice treated as indicated and challenged in the presence of carrier protein or GDF15 blocking peptide. (FIG. 5I to FIG. 5K) AHR and frequencies of the indicated lung cell types in sham or OVA+UFP sensitized and challenged Foxp3^YFPCre and Foxp3^YFPCreNotch4^Δ/Δ mice treated with recombinant GDF15, as indicated. Each symbol represents an independent sample. Numbers in flow plots indicate percentages. Error bars indicate SEM. Statistical tests: two-way ANOVA with Sidak’s post hoc analysis (FIGS. 5A to 5D, 5G and 5I); One-way ANOVA with Dunnett’s post hoc analysis (FIGS. 5E and 5F, 5H and 5J). *P<0.05, ***P<0.001, ****P<0.0001. Data representative of two or three independent experiments. n=5-15 mice per group.
# (FIG. 18A) Representative PAS-stained sections of lung tissues isolated from Foxp3^YFPCre and Foxp3^YFPCreNotch4^Δ/Δ with either PBS or OVA+UFP, the latter either alone or supplemented with GDF15, as indicated (200X magnification). (FIG. 18B) Inflammation score for the respective mouse groups. (FIG. 18C) Frequencies of ILC in the lungs of respective mouse groups. (FIG. 18D) IL-4, IL-13, and IL-17 expression in lung Foxp3^-CD4^+ Teff cells in the respective groups. (FIG. 18E) IL-4, IL-13, and IL-17 expression in lung Foxp3^+CD4^+ Treg cells in the respective groups. Error bars indicate SEM. Statistical tests. One-way ANOVA with Dunnett’s post hoc analysis. (FIGS. 18A-18E) **P<0.01, ***P<0.001, ****P<0.0001. Data representative of two or three independent experiments. n=10 mice per group.
# (FIG. 19A) Representative PAS-stained sections of lung tissues isolated from Foxp3^YFPCre, treated with GDF15 blocking peptide segregated into PBS, or OVA+UFP-treated groups (200X magnification). (FIG. 19B) Inflammation score for the respective mouse groups. […]
# [4] = system: Notch4 on differentiating Treg cells; test: antigen presenting cell-free in vitro iTreg cell differentiation (anti-CD3+anti-CD28 mAbs, TGF-β1); assay type: cell-based, mouse; conditions: naive T cells
# Excerpt: as §1, with “Statistical tests for all panels: One-way ANOVA with Dunnett’s post hoc analysis. *P<0.05, **P<0.01, ***P<0.001, ****P<0.0001. Data representative of two or three independent experiments. (FIGS. 1A, 1D to 1F) n=5, (FIGS. 1B and 1C) n=15 and (FIGS. 1G and 1H) n=6 replicates per group.” left out
# [5] = system: IL-13 expression in naive ILC2; test: in vitro cultures of ILC2 derived from naive mice stimulated with GDF15, IL-33 or both; assay type: cell-based, mouse
# Procedure: as §2
# [6] = OVA+UFP treated Foxp3YFPCreNotch4Δ/Δ mice, intra-tracheal instillation
molecule,measurement,setting,value
TSLP: cytokine added to cell cultures,Notch4 expression on differentiating iTreg cells,[1],not
IL-1β: cytokine added to cell cultures,Notch4 expression on differentiating iTreg cells,[1],not
Tocilizumab: anti-IL-6R mAb (anti-IL-6Ra chain mAb),Notch4 expression on patient Treg cells,[2],decreased Notch4 expression
same,Notch4 expression on patient Treg cells,[2]; listed as tocilizumab,substantially attenuated Notch4 expression
"GDF15 blocking peptide: GDF15 inhibitory peptide, KTSLHRLKPDTVPAPC (SEQ ID NO: 1; amino acids 258-273 of the full length GDF15 gene product) (listed as Homo sapiens)",upregulation of IL13 expression in naive ILC2 by Notch4high Treg cells,GDF15,reversed
same,"AHR, tissue inflammation, IL-4 and IL-13 expression in Teff cells (allergic airway inflammation)","[3]; OVA+UFP treated Foxp3YFPCre mice, instillation",downregulated the aforementioned changes; also recorded: attenuates allergic airway inflammation
IL-6: interleukin-6 cytokine added to cell cultures,Notch4 expression on differentiating iTreg cells,[1],super-induction of Notch4 expression
same,Notch4 on differentiating Treg cells,[4],induced Notch4 on differentiating Treg cells
TNFa,Notch4 expression on differentiating iTreg cells,[1],not
B1,Notch4 expression on differentiating iTreg cells,[1],not
B2,IL-13 expression in ILC2 derived from naive mice,[5]; alone,upregulated IL-13 expression alone
same,IL-13 expression in ILC2 derived from naive mice,[5]; in combination with IL-33,especially in synergy with IL-33
same,AHR and tissue inflammation,[3]; [6],upregulated the AHR and tissue inflammation
same,IL-4 and IL-13 expression in Teff cells,[3]; [6],increasing IL-4 and IL-13 expression in Teff cells
same,AHR and tissue inflammation,"[3]; OVA+UFP treated Foxp3YFPCreNotch4Δ/Δ mice, intra-tracheal instillation, listed as GDF15",restores airway inflammation
B3,Notch4 expression induced by IL-6,[1]; added together with IL-6,further upregulated the expression of Notch4
same,Notch4 expression on differentiating iTreg cells,[1],did not induce Notch4 on its own
